Measurements: ChEMBL document CHEMBL5385846, “Discovery and development of palmatine analogues as anti-NASH agents by activating farnesoid X receptor (FXR)” (Eur J Med Chem, 2023)
Activity calls are given as the source filed them. The calls are words filed in the database; no cut-off is given here.

Legend:
[1] = Half life in human liver microsomes at 1 micromol/L measured upto 60 mins in presence of NADPH by LC-MS/MS analysis; assay type: ADME, Microsome; settings: dose 1 µmol/L
[2] = tested on: Mus musculus; assay: Anti-inflammatory activity in CDAHFD induced C57BL/6N mouse liver injury model assessed as downregulation of IL-1beta protein expression in liver at 200 mg/kg,po qd administration for 4 weeks by Western blotting analysis; assay type: functional, organism-based
[3] = tested on: Mus musculus; assay: Anti-inflammatory activity in CDAHFD induced C57BL/6N mouse liver injury model assessed as downregulation of TNF-alpha mRNA expression in liver at 200 mg/kg,po qd administration for 4 weeks by qRT-PCR analysis; assay type: functional, organism-based
[4] = tested on: Mus musculus; assay: Anti-inflammatory activity in CDAHFD induced C57BL/6N mouse liver injury model assessed as downregulation of IL-6 mRNA expression in liver at 200 mg/kg,po qd administration for 4 weeks by qRT-PCR analysis; assay type: functional, organism-based
[5] = tested on: Mus musculus; assay: Anti-inflammatory activity in CDAHFD induced C57BL/6N mouse liver injury model assessed as downregulation of IL-1beta mRNA expression in liver at 200 mg/kg,po qd administration for 4 weeks by qRT-PCR analysis; assay type: functional, organism-based
[6] = tested on: Mus musculus; assay: Anti-inflammatory activity in CDAHFD induced C57BL/6N mouse liver injury model assessed as reduction in inflammatory cell infiltration in liver at 200 mg/kg,po qd administration for 4 weeks by hematoxylin and eosin staining based assay; assay type: functional, organism-based
[7] = tested on: Mus musculus; assay: Antifibrotic activity in CDAHFD induced non-alcoholic steatohepatitis C57BL/6N mouse model assessed as downregulation of TIMP1 protein expression at 200 mg/kg,po qd administration for 4 weeks by Western blotting analysis; assay type: functional, organism-based
[8] = tested on: Mus musculus; assay: Antifibrotic activity in CDAHFD induced non-alcoholic steatohepatitis C57BL/6N mouse model assessed as downregulation of MMP2 protein expression at 200 mg/kg,po qd administration for 4 weeks by Western blotting analysis; assay type: functional, organism-based
[9] = tested on: Mus musculus; assay: Antifibrotic activity in CDAHFD induced non-alcoholic steatohepatitis C57BL/6N mouse model assessed as downregulation of MMP2 mRNA expression at 200 mg/kg,po qd administration for 4 weeks by qRT-PCR analysis; assay type: functional, organism-based
[10] = tested on: Mus musculus; assay: Antifibrotic activity in CDAHFD induced non-alcoholic steatohepatitis C57BL/6N mouse model assessed as downregulation of TGF-beta1 mRNA expression at 200 mg/kg,po qd administration for 4 weeks by qRT-PCR analysis; assay type: functional, organism-based
[11] = tested on: Mus musculus; assay: Hepatoprotective activity in CDAHFD induced C57BL/6N mouse liver injury model assessed as reduction in free cholesterol level at 200 mg/kg,po qd administration for 4 weeks; assay type: functional, organism-based
[12] = tested on: Mus musculus; assay: Hepatoprotective activity in CDAHFD induced C57BL/6N mouse liver injury model assessed as reduction in hepatic steatosis at 200 mg/kg,po qd administration for 4 weeks by hematoxylin and eosin staining based assay; assay type: functional, organism-based
[13] = tested on: Mus musculus; assay: Hepatoprotective activity in CDAHFD induced C57BL/6N mouse liver injury model assessed as decrease in total bilirubin level at 200 mg/kg,po qd administration for 4 weeks; assay type: functional, organism-based
[14] = tested on: Mus musculus; assay: Hepatoprotective activity in CDAHFD induced C57BL/6N mouse liver injury model assessed as decrease in ALP level at 200 mg/kg,po qd administration for 4 weeks; assay type: functional, organism-based
[15] = Acute toxicity in Kunming mouse assessed as effect on […] level at 250 to 1000 mg/kg,po administration; assay type: organism-based; settings: in vivo, dose 250-1000 mg/kg
[16] = Acute toxicity in Kunming mouse assessed as effect on blood urea nitrogen level at 250 to 1000 mg/kg,po administration; assay type: organism-based; settings: in vivo, dose 250-1000 mg/kg
[17] = Acute toxicity in Kunming mouse assessed as effect on ALT level at 250 to 1000 mg/kg,po administration; assay type: organism-based; settings: in vivo, dose 250-1000 mg/kg
[18] = tested on: LX-2; assay: Antifibrotic activity in TGF-beta1 induced human LX2 cells assessed as downregulation of TIMP1 mRNA expression incubated for 24 hrs by qRT-PCR analysis; assay type: functional, cell-based
[19] = tested on: LX-2; assay: Antifibrotic activity in TGF-beta1 induced human LX2 cells assessed as downregulation of alpha-SMA protein expression incubated for 24 hrs by western blotting analysis; assay type: functional, cell-based
[20] = tested on: LX-2; assay: Antifibrotic activity in TGF-beta1 induced human LX2 cells assessed as downregulation of COL1A1 protein expression incubated for 24 hrs by western blotting analysis; assay type: functional, cell-based
[21] = Metabolic stability in human liver microsomes assessed as intrinsic clearance at 1 micromol/L measured upto 60 mins in presence of NADPH by LC-MS/MS analysis; assay type: ADME, Microsome; settings: 1 h, 1 µM, dose 1 µmol/L
[22] = Metabolic stability in Sprague-Dawley rat liver microsomes assessed as microsomal intrinsic clearance at 1 micromol/L measured upto 60 mins in presence of NADPH by LC-MS/MS analysis; assay type: ADME, Microsome; settings: dose 1 µmol/L, read-out: CLH
[23] = tested on: LX-2; assay: Antifibrotic activity in TGF-beta1 induced human LX2 cells assessed as downregulation of TIMP1 protein expression incubated for 24 hrs by western blotting analysis; assay type: functional, cell-based
[24] = target: Collagen alpha-1(I) chain (Homo sapiens) (UniProt P02452); assay: Inhibition of COL1A1 (unknown origin) expressed in human LX2 cells at 20 micromol/L incubated for 48 hrs by Bright-Glo luciferase assay relative to control; assay type: cell-based; settings: dose 20.0 µmol/L
Collagen alpha-1(I) chain (Homo sapiens), sequence (P02452 whole entry): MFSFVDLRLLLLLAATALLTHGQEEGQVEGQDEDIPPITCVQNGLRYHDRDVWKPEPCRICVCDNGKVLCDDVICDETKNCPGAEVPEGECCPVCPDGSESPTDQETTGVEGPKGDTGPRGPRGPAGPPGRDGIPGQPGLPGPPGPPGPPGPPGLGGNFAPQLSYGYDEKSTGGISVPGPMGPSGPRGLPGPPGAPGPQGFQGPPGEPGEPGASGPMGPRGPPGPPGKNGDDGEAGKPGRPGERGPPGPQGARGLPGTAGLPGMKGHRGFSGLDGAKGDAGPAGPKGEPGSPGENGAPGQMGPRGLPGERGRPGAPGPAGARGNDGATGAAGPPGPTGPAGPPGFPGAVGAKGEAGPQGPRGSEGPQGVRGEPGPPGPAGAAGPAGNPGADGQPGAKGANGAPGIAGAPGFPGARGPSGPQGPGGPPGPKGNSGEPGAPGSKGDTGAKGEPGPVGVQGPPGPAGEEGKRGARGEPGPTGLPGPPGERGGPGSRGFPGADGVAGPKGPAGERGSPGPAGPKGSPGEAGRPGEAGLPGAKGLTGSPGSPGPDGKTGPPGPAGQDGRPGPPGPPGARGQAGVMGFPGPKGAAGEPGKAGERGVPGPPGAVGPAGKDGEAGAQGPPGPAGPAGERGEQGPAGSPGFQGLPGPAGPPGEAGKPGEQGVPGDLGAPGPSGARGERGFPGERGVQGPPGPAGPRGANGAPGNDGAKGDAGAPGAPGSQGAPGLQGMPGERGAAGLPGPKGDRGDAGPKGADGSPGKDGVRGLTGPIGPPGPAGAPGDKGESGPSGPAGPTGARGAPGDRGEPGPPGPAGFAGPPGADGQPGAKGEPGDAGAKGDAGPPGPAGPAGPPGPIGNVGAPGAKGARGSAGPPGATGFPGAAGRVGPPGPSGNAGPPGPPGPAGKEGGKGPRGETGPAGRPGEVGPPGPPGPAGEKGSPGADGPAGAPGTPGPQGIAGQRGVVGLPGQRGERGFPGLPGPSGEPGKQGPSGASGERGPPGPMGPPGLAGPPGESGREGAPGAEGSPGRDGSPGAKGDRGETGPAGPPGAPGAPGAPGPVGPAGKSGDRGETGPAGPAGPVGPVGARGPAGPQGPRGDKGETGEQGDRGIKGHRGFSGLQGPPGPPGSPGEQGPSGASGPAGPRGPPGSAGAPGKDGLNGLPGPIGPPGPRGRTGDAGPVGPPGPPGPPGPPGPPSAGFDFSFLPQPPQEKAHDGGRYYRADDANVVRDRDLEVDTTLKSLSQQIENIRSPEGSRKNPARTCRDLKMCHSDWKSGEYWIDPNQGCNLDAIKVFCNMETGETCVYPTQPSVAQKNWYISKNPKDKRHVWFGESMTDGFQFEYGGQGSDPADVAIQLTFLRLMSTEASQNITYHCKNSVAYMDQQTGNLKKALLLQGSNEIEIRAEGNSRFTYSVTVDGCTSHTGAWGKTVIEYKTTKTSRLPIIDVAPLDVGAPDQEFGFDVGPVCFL

[25] = Cytotoxicity against human LX2 cells assessed as inhibition of cell growth; assay type: toxicity, cell-based, LX-2
[26] = tested on: THP-1; assay: Anti-inflammatory activity in PMA differentiated human THP-1 cells assessed as downregulation of IL-1beta protein expression at 5 micromol/L incubated for 4 hrs followed by LPS and Nigericin addition for 3.5 hrs by Western blotting analysis; assay type: functional, cell-based; settings: dose 5.0 µmol/L, time 7.5 hrs
[27] = tested on: THP-1; assay: Anti-inflammatory activity in PMA differentiated human THP-1 cells assessed as downregulation of IL-1beta protein expression at 10 micromol/L incubated for 4 hrs followed by LPS and Nigericin addition for 3.5 hrs by Western blotting analysis; assay type: functional, cell-based; settings: dose 10.0 µmol/L, time 7.5 hrs
[28] = tested on: THP-1; assay: Anti-inflammatory activity in PMA differentiated human THP-1 cells assessed as downregulation of caspase-1 protein expression at 5 micromol/L incubated for 4 hrs followed by LPS and Nigericin addition for 3.5 hrs by Western blotting analysis; assay type: functional, cell-based; settings: dose 5.0 µmol/L, time 7.5 hrs
[29] = tested on: THP-1; assay: Anti-inflammatory activity in PMA differentiated human THP-1 cells assessed as downregulation of caspase-1 protein expression at 10 micromol/L incubated for 4 hrs followed by LPS and Nigericin addition for 3.5 hrs by Western blotting analysis; assay type: functional, cell-based; settings: dose 10.0 µmol/L, time 7.5 hrs
[30] = tested on: Rattus norvegicus; assay: Hepatoprotective activity in bile duct ligation induced Sprague-Dawley rat liver injury model assessed as decrease in ALT level at 200 mg/kg,po qd administration for 14 days; assay type: functional, organism-based; settings: time 14.0 day
[31] = tested on: Rattus norvegicus; assay: Hepatoprotective activity in bile duct ligation induced Sprague-Dawley rat liver injury model assessed as decrease in AST level at 200 mg/kg,po qd administration for 14 days; assay type: functional, organism-based; settings: time 14.0 day
[32] = tested on: Rattus norvegicus; assay: Hepatoprotective activity in bile duct ligation induced Sprague-Dawley rat liver injury model assessed as decrease in total bilirubin level at 200 mg/kg,po qd administration for 14 days; assay type: functional, organism-based; settings: time 14.0 day
[33] = tested on: Rattus norvegicus; assay: Antifibrotic activity in bile duct ligation induced Sprague-Dawley rat liver fibrosis model assessed as downregulation of COL1A1 mRNA expression at 200 mg/kg,po qd administration for 14 days by qRT-PCR analysis; assay type: functional, organism-based; settings: time 14.0 day

COc1cc2c(cc1OC)-c1cc3ccc(OC)c(OCc4cccc(C)c4)c3c[n+]1CC2.[Br-]
half-life at 1 µM [1]: 53.3 min
Activity [2]: Active
Activity [3]: Active
Activity [4]: Active
Activity [5]: Active
Activity [6]: Active
Activity [7]: Active
Activity [8]: Active
Activity [9]: Active
Activity [10]: Active
Activity [11]: Active
Activity [12]: Active
Activity [13]: Active
Activity [14]: Active
Activity [15]: Non-Toxic
Activity [16]: Non-Toxic
Activity [17]: Non-Toxic
Activity [18]: Dose-Dependent Effect
Activity [19]: Dose-Dependent Effect
Activity [20]: Dose-Dependent Effect
CLint,scaled [21]: 23.4 mL/min/kg
microsomal CLint at 1 µM [22]: 188 µL/min/mg
Activity [23]: Dose-Dependent Effect
inhibition [24]: 72.4%
CC50 [25]: 70.4 µM
Activity [26]: Active
Activity [27]: Active
Activity [28]: Active
Activity [29]: Active
Activity [30]: Active
Activity [31]: Active
Activity [32]: Active
Activity [33]: Active
